Laboratory results taken from patent US20070238727A1, “5-Substituted 1-Phenyl-1,5-Dihydro-Pyrido[3,2-B]Indol-2-Ones and Analogs as Anti-Virals” (Tibotec BVBA, priority 2004, published 2007).

Tests used:
HIV = experiment: Cellular assay: anti-viral activity in HIV-infected MT4 cells (MTT); type: cell-based; conditions: Human immunodeficiency virus 1, 120 h, five days incubation, negative logarithm of EC50
Procedure: Compounds of the present invention were examined for anti-viral activity in a cellular assay, which was performed according to the following procedure.
HIV- or mock-infected MT4 cells were incubated for five days in the presence of various concentrations of the inhibitor. At the end of the incubation period, the replicating virus in the control cultures has killed all HIV-infected cells in the absence of any inhibitor. Cell viability was determined by measuring the concentration of MTT, a yellow, water soluble tetrazolium dye that is converted to a purple, water insoluble formazan in the mitochondria of living cells only. Upon solubilization of the resulting formazan crystals with isopropanol, the absorbance of the solution was monitored at 540 nm. The values correlate directly to the number of living cells remaining in the culture at the completion of the five day incubation. The inhibitory activity of the compound was monitored on the virus-infected cells and was expressed as EC50 and EC90. These values represent the amount of the compound required to protect 50% and 90%, respectively, of the cells from the cytopathogenic effect of the virus. The toxicity of the compound was measured on the mock-infected cells and was expressed as CC50, which represents the concentration of compound required to inhibit the growth of the cells by 50%. The selectivity index (SI) (ratio CC50/EC50) is an indication of the selectivity of the anti-HIV activity of the inhibitor. Wherever results are reported as e.g. pEC50 or pCC50 values, the result is expressed as the negative logarithm of the result expressed as EC50 or CC50 respectively.

[1] = target: T1, HIV reverse transcriptase (Human immunodeficiency virus type 1 group M subtype B, UniProt P04585); experiment: In vitro inhibition of HIV reverse transcriptase (kit TRK 1022, 3H-TTP); type: biochemical; conditions: HIV RT enzyme, 4 hours at 37° C., no conversion to active metabolite needed
T1 construct: 5 μl HIV RT enzyme solution at a final enzyme activity of 15 mU per 50 μl reaction; purchased Amersham Life Sciences TRK 1022
Procedure: The assay was run using kit TRK 1022 (Amersham Life Sciences) according to the manufacturer's instructions with slight modifications. Test compounds were diluted in steps of 1/4 in 100% DMSO and subsequently transferred to Medium A (1/50 dilution; medium A: RPMI 1640+10% FetalClone 1+Gentamycin 20 mg/L). 25 μl of compound (in 2% DMSO in Medium A) or 25 μl of 2% DMSO in medium A was added to wells. To each well was added 25.5 μl master mix (master mix: 5 μl primer/template beads, 10 μl assay buffer, 0.5 μl tracer (3H-TTP), 5 μl HIV RT enzyme solution at a final enzyme activity of 15 mU per 50 μl reaction, 5 μl medium A). The plates were sealed, marked as radioactive and incubated during 4 hours at 37° C. Subsequently, 100 μl stop solution was added to each well (except R1). The radioactivity was counted in a TopCount.

Compound	EC50 (HIV) [µM]	inhibition of HIV reverse transcriptase in vitro [1]
COCCOCCn1c2ccccc2c2c1cc(C#N)c(=O)n2-c1ccc([N+](=O)[O-])cc1 [Compound 4, 5-[2-(2-Methoxy-ethoxy)-ethyl]-1-(4-nitro-phenyl)-2-oxo-2,5-dihydro-1H-pyrido-[3,2-b]indole-3-carbonitrile]	0.316	
N#Cc1cc2c(c3ccccc3n2CC(O)CN2CCSCC2)n(-c2ccc([N+](=O)[O-])cc2)c1=O (stereo not drawn) [Compound 9]	0.794	
COC(Cn1c2ccccc2c2c1cc(C#N)c(=O)n2-c1ccc([N+](=O)[O-])cc1)C[N+](C)(C)C (stereo not drawn) [Compound 13]	15.8	
N#Cc1cc2c(c3ccccc3n2CC(O)CN2CCCC2)n(-c2ccc([N+](=O)[O-])cc2)c1=O (stereo not drawn) [Compound 2, 5-(2-Hydroxy-3-pyrrolidin-1-yl-propyl)-1-(4-nitro-phenyl)-2-oxo-2,5-dihydro-1H-pyrido[3,2-b]indole-3-carbonitrile]	0.251	inhibit IV reverse transcriptase in vitro
COCCOCCOCCn1c2ccccc2c2c1cc(C#N)c(=O)n2-c1ccc([N+](=O)[O-])cc1 [Compound 11]	1.58	

Further lines, with some results ahead:

EC50 (HIV) [µM]	Compound	inhibition of HIV reverse transcriptase in vitro [1]
2.51	CC(=O)N1CCN(CCCn2c3ccccc3c3c2cc(C#N)c(=O)n3-c2ccc([N+](=O)[O-])cc2)CC1 [Compound 35]	
15.8	N#Cc1cc2c(c3ccccc3n2CCCONC(=N)N)n(-c2ccc([N+](=O)[O-])cc2)c1=O [Compound 25]	
1	CC1CCCN(CCn2c3ccccc3c3c2cc(C#N)c(=O)n3-c2ccc([N+](=O)[O-])cc2)C1 (stereo not drawn) [Compound 31]	
1	CC1CN(CCn2c3ccccc3c3c2cc(C#N)c(=O)n3-c2ccc([N+](=O)[O-])cc2)CC(C)O1 (stereo not drawn) [Compound 40]	
0.794	N#Cc1cc2oc3ccccc3c2n(-c2ccc([N+](=O)[O-])cc2)c1=O [Compound 42, 1-(4-Nitro-phenyl)-2-oxo-1,2-dihydro-benzo[4,5]furo[3,2-b]pyridine-3-carbonitrile]	
0.501	CC(=O)OC(CN1CCCC1)Cn1c2ccccc2c2c1cc(C#N)c(=O)n2-c1ccc([N+](=O)[O-])cc1 (stereo not drawn) [Compound 21]	
